# Results reported in patent US20220315577A1, “NEW EGFR INHIBITORS” (Hoffmann-La Roche Inc., priority 2019, published 2022).
# Target: T1, EGFR TMLRCS (T790M/L858R/C797S), BaF3-TMLRCS cell line (Homo sapiens, UniProt P00533, C797S/L858R/T790M)
# T1 construct: host or cells: BaF3 (BaF3-TMLRCS, puromycin selection)
# Assay: HTRF Phospho EGFR TMLRCS assay (cellular)
# Type: cell-based
# Conditions: BaF3-TMLRCS cells, 4 hours incubation, Phospho-EGFR HTRF readout
# Experimental: HTRF Phospho EGFR TMLRCS Assay (Cellular)
# BaF3-TMLRCS cell line were obtained from Crownbio (San Diego, Calif., USA). Cells were maintained at 37° C., 5% CO2 in RPMI ATCC (Gibco 31870)+2 mM Glutamine+0.5 μg/ml Puromycin supplemented with 10% fetal bovine serum (FBS) (Gibco).
# Cells are transferred as above to Greiner Bio-One, Nr. 784-08 micro-titerplate at 20000 cells/well in 12.5 μl of growth medium/well after the plates had been pre-filled with 12.5 nl of DMSO solutions of the to be tested compounds (in dose response) or DMSO only. After spinning the plates at 300×g for 30 seconds the cells were incubated for 4 hours at 37 C, 5% CO2, 95% humidity. The cells were lysed by adding to the compound mix 4 μl/well of the supplemented lysis buffer (Cis-bio, Phospho-EGFR HTRF kit, 64EG1PEH), followed by incubation for 30 min at room temperature with shaking (400 rpm). The plates were then frozen and stored overnight at −80 C. On the next day and after thawing the plates, 4 μl of a mixture of anti-Phospho-EGFR Cryptate and of anti-Phospho-EGFR-d2 antibody solutions prepared in the supplied detection buffer was added to each well. The lidded plates were then incubated for 4 h at room temperature before reading the fluorescence emission at 616 and 665 nm using an Envision reader (Perkin Elmer). Data was analyzed in similar fashion as above using the normalized ratio of the 665 to 616 signals multiplied by 10000.
# T1 sequence (P00533 25-1210 T790M/C797S/L858R): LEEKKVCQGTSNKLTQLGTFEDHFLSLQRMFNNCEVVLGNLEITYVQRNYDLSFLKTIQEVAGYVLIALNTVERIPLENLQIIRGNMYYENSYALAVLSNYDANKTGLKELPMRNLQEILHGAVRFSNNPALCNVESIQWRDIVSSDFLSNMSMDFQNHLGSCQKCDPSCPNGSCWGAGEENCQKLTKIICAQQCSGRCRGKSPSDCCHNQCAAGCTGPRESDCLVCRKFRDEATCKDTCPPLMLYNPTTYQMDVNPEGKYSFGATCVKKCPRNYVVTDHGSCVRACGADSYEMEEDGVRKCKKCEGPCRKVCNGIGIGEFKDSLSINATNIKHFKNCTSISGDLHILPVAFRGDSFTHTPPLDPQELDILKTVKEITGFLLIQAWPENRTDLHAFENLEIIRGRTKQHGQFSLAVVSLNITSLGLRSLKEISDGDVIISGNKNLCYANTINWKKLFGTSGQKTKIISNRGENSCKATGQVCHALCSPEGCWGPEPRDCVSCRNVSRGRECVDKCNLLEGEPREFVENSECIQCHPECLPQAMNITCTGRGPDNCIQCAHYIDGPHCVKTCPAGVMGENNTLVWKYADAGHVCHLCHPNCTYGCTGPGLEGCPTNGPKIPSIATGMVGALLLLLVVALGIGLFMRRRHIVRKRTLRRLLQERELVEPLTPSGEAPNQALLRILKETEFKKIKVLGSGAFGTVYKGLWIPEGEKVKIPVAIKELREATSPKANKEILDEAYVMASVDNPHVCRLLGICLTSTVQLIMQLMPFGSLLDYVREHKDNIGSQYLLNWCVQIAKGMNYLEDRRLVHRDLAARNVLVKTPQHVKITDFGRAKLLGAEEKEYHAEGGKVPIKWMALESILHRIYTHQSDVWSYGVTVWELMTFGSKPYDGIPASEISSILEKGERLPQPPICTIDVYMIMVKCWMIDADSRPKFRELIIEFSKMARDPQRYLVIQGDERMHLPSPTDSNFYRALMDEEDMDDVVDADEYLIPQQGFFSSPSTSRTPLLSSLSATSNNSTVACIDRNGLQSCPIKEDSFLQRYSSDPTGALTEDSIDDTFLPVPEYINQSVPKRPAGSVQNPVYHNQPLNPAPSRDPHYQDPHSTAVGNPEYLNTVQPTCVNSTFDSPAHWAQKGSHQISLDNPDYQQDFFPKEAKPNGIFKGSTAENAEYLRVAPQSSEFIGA
row,IC50,SMILES
1,12 nM,"CCN1CCC(c2ccc(-c3cc(F)c4c(c3)C(=O)N(C(C(=O)Nc3nccs3)c3cc(F)ccc3O)C4)cc2)CC1 (racemic) [Example 1, (2RS)-2-[6-[4-(1-Ethyl-4-piperidyl)phenyl]-4-fluoro-1-oxo-isoindolin-2-yl]-2-(5-fluoro-2-hydroxy-phenyl)-N-thiazol-2-yl-acetamide]"
2,11 nM,"CCN1CCC(c2ccc(-c3cc(F)c4c(c3Cl)C(=O)N(C(C(=O)Nc3nccs3)c3cc(F)ccc3O)C4)cc2)CC1 (racemic) [Example 2, (2RS)-2-[7-Chloro-6-[4-(1-ethyl-4-piperidyl)phenyl]-4-fluoro-1-oxo-isoindolin-2-yl]-2-(5-fluoro-2-hydroxy-phenyl)-N-thiazol-2-yl-acetamide]"
3,9 nM,"O=C(Nc1nccs1)C(c1cc(F)ccc1O)N1Cc2c(F)cc(-c3ccc(C4CCN(CCF)CC4)cc3)cc2C1=O (racemic) [Example 3, (2RS)-2-[4-Fluoro-6-[4-[1-(2-fluoroethyl)-4-piperidyl]phenyl]-1-oxo-isoindolin-2-yl]-2-(5-fluoro-2-hydroxy-phenyl)-N-thiazol-2-yl-acetamide]"
